Results from US20190350955A1, “METHODS AND PHARMACEUTICAL COMPOSITIONS FOR THE TREATMENT OF CARDIOMYOPATHIES” (INSERM (Institut National de la Sante et de la Recherche …, priority 2016, published 2019).

Legend:
[1] = test system: neonatal rat cardiomyocytes (NRC); experiment: Western blot of AMPK phosphorylation and Nmrk2 protein in NRC; type: cell-based; details: AICAR 500 μM, 48 h
Method: Proteins were homogenized in a lysis buffer (Tris-HCl pH 7.5 50 mM, NP40 Igepal 1%, NaCl 150 mM, EDTA 1 mM, DTT 1 mM, Glycerol 10%) in the presence of proteases.
phosphatases and deacetylases inhibitors (PMSF 0.5 mM, NaF 50 mM, PPiNa 5 mM, Roche protease cocktail inhibitor 1/100, Santa Cruz deacetylase cocktail inhibitor 1/100). Equal amounts of proteins (10 to 20 μg) were separated on SDS-PAGE and transferred to nitrocellulose membranes. Proteins were detected by overnight incubation at 4° C. with primary antibodies, followed by IRDye 700 or IRDye800 fluorescent antibodies (Li-Cor Biosciences. 1/2500) and scanned on an Odyssey CLx Infrared Imaging System (Li-Cor Biosciences).
(§1) Isolation and Treatments of Neonatal Rat Cardiomyocytes (NRC) NRC were isolated as described previously (Diguet et al., 2011). 1-day-old rat pups were killed by decapitation and the cardiac ventricles were harvested and minced into 1 to 2-mm wide cubes with scissors. After washing with Tyrode solution, heart fragments were subjected up to 10 rounds of digestion with 0.05 mg/ml of Liberase Blendzyme 4 (Roche Applied Science) in 10 ml oxygenated Tyrode solution under agitation at 37° C. for 10 minutes. The supernatant of the first digestion was discarded and the following digestions were centrifuged and the cell pellet dissociated in 2 ml of DMEM, 10% FCS. […]

[2] = test system: neonatal rat cardiomyocytes (NRC); experiment: NAD+ and NADH levels in NRC; type: cell-based; details: AICAR treatment
Method: For cell cultures, the wells were washed twice with PBS and scraped on ice in HClO4 0.5M (100 μl/well in 12-well plate). Acid extracts were neutralized with a half volume of KOH 1M/K2HPO4-KH2PO4 0.33 M pH 7.5. Heat denaturation was selective for NAD^+ in this condition. Measures were made on a volume of […], of non heated extracts (NADt) or 25 μl of heated extracts (NADH) (diluted 1/10 to 1/20).
For both types of extracts (buffered ethanol or HClO4) we added 100 μL of reaction buffer (600 mM ethanol, 0.5 mM 3-(4.5-dimethylthiazol-2-yl)-2.5-diphenyltetrazolium bromide (MTT), 2 mM phenazine ethosulfate (PES), 120 mM Bicine (pH 7.8), yeast alcohol dehydrogenase (SIGMA A3263>300 u/mg.) 0.05 mg/ml. Kinetics of the reaction (OD at 550 nm, every 30 seconds for 40 minutes) was followed on a TECAN Infinite F500 microplate reader. NAD was quantified in duplicates for each sample by comparison to a range of standard NAD^+ concentration using linear regression curve equation method between NAD^+ standard concentrations and the slope of the reaction in OD units/sec. NAD^+/NADH was obtained by the formula ([NADt]−[NADH])/[NADH]. Cell extracts were quantified for protein concentration determined by Bradford assay.
Isolation and Treatments of Neonatal Rat Cardiomyocytes (NRC) NRC were isolated as described previously (Diguet et al., 2011). […]

Nmrk2 = experiment: RT qPCR of Nmrk2 mRNA in NRC; type: cell-based, rat; details: AICAR treatment
Method: cDNAs were reverse transcribed from RNA (1.5 μg) extracted in TRIzol (Thermofisher) from cell cultures and tissues using the Superscript II Reverse Transcriptase (Life Technologies). Quantitative PCR was carried out on a Light Cycler 480 (Roche Diagnostics) using Fast Start SYBR Green Master (Roche Diagnostics). Quantification of gene expression was calculated as R=2^ΔCt(Ref Cp−target Cp), with Hprt used as a as reference. Primers were designed using the NCBI Primer-BLAST software. Primer sequences are available on request.
as §1, with “FCS. The different fractions were pooled and centrifuged on a discontinuous Percoll gradient (bottom 58.5%. top 40.5%. 30 min. 3000 rpm) to enrich in cardiomyocytes at the interface between the 2 Percoll solutions.” for “FCS.”

Nmrk2 promoter = Nmrk2 promoter luciferase reporter assay in NRC; type: cell-based, rat; details: NRC, AICAR 500 μM
Method: Isolation and Treatments of Neonatal Rat Cardiomyocytes (NRC) NRC were isolated as described previously (Diguet et al., 2011). 1-day-old rat pups were killed by decapitation and the cardiac ventricles were harvested and minced into 1 to 2-mm wide cubes with scissors. After washing with Tyrode solution, heart fragments were subjected up to 10 rounds of digestion with 0.05 mg/ml of Liberase Blendzyme 4 (Roche Applied Science) in 10 ml oxygenated Tyrode solution under agitation at 37° C. for 10 minutes. The supernatant of the first digestion was discarded and the following digestions were centrifuged and the cell pellet dissociated in 2 ml of DMEM, 10% FCS. The different fractions were pooled and centrifuged on a discontinuous Percoll gradient (bottom 58.5%. top 40.5%. 30 min. 3000 rpm) to enrich in cardiomyocytes at the interface between the 2 Percoll solutions. Non cardiac cells containing mainly fibroblasts were at the top of the tubes. Neonatal cardiomyocytes were seeded at a density 5×10^5 cells/well in 6-well plates coated with 10 μg/ml of laminin (BD Biosciences) in DMEM without pyruvate, with glucose 4.5 g/l, 10% horse serum, 5% FCS and cultured at 37° C. in 1% CO, atmosphere. To assay the impact on NAD^+ and Nmrk2 expression, Azaserin and FK866 drugs were added in the culture medium at day 5 and renewed everyday when the treatment was prolonged over several days. The same was done for NAD^+, NR and AICAR (5-aminoimidazole-4-carboxamide-1-β-D-ribofuranoside). AICAR was administrated for 24 h only. Doses are indicated in the legends. For treatment of transfected cells (see next section), AICAR, FK866 and PPAR agonists and antagonist were administrated 1 day after transfection. PPAR agonists: GW7647 for PPARα, GW501516 for PPARβ/δ and GW1929 for PPARγ; PPAR antagonists: GW6471 PPARα, GSK3787 for PPARβ/δ and GW9662 for PPARγ were ordered from SIGMA ALDRICH CHIMIE, Saint Quentin Fallavier, France.
The transcription initiation site of mouse Nmrk2 promoter was determined by 5′RACE and was conform to the reported site in the Genebank (NM_027120.2). The promoter of the mouse Nmrk2 gene was cloned from C57B16/N genomic DNA by PCR, and inserted into a pGL4.10[luc2] luciferase reporter plasmid (Promega prod no E6651). Subsequent deletions were performed by enzymatic digestion or primer mediated subcloning of the original fragment. 2.5×10^5 cardiomyocytes in 12-well plates were co-transfected at day 2 of culture with 1 μg of Nmrk2 pGL4.10[luc2] constructs and 100 ng of pGL4.73[hRluc/SV40] Vector (Promega prod no E6911) as an internal control of transfection efficiency using Lipofectamine 2000 (Lifetechnology) as indicated by the supplier. In the case of AICAR treatment, Luciferase activity was analyzed 48 h later with the Dual-Luciferase Assay System (Promega).
The pcDNA3 vectors harboring dominant negative AMPK, PPARα, PPARβ and PPARγ as well as RXR genes were kindly provided by Pr. Michel Raymondjean (El Hadri et al. (2015). AMPK Signaling Involvement for the Repression of the IL-1beta-Induced Group IIA Secretory Phospholipase A2 Expression in VSMCs. Journal 10, e0132498; Ravaux et al. (2007). Inhibition of interleukin-1 beta-induced group 11A secretory phospholipase A2 expression by peroxisome proliferator-activated receptors (PPARs) in rat vascular smooth muscle cells: cooperation between PPARbeta and the proto-oncogene BCL-6. Journal 27, 8374-8387; Woods et al. (2000). Characterization of the role of AMP-activated protein kinase in the regulation of glucose-activated gene expression using constitutively active and dominant negative forms of the kinase. Journal 20, 6704-6711). These vectors were cotransfected at a dose of 100 ng/well in 24-well plates with 500 ng of Nmrk2 luciferase constructs.

NC(=O)c1ncn([C@@H]2O[C@H](COP(=O)(O)O)[C@@H](O)[C@H]2O)c1N [AICAR, 5-Aminoimidazole-4-carboxamide ribonucleotide]
AMPK phosphorylation [1]: stimulated | Nmrk2 expression at the protein level [1]: induced | NAD+ or NADH levels [2]: did not modulate | Nmrk2 expression (mRNA) (Nmrk2): robustly induced | full-length p3009-Luc Nmrk2 reporter response (Nmrk2 promoter): highly responsive | p581-Luc Nmrk2 reporter response (Nmrk2 promoter): modestly responsive
